Measured values taken from PubChem BioAssay (NCI).
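Assay format: 96-well plates, 48-hour exposure. GI50: concentration for 50% inhibition of growth. TGI: total growth inhibition.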

Key:
Experiment in all cases: inhibition of tumour cell growth, NCI panel, 48 h
IGROV1 ovarian = test system: IGROV1 ovarian
HT29 colon = test system: HT29 colon
NCI-H522 lung = test system: NCI-H522 lung
UACC-62 melanoma = test system: UACC-62 melanoma
OVCAR-8 ovarian = test system: OVCAR-8 ovarian
SN12C renal = test system: SN12C renal
LOX IMVI melanoma = test system: LOX IMVI melanoma
SF-268 CNS = test system: SF-268 CNS
SK-MEL-5 melanoma = test system: SK-MEL-5 melanoma
SR leukemia = test system: SR leukemia
HCT-116 colon = test system: HCT-116 colon
NCI/ADR-RES ovarian = test system: NCI/ADR-RES ovarian
BT-549 breast = test system: BT-549 breast
HOP-62 NSCLC = test system: HOP-62 NSCLC
COLO 205 colon = test system: COLO 205 colon
MALME-3M melanoma = test system: MALME-3M melanoma
EKVX NSCLC = test system: EKVX NSCLC
SK-MEL-28 melanoma = test system: SK-MEL-28 melanoma
UACC-257 melanoma = test system: UACC-257 melanoma
U251 CNS = test system: U251 CNS
NCI-H460 lung = test system: NCI-H460 lung
OVCAR-5 ovarian = test system: OVCAR-5 ovarian
SK-OV-3 ovarian = test system: SK-OV-3 ovarian
CAKI-1 renal = test system: CAKI-1 renal
RPMI-8226 leukemia = test system: RPMI-8226 leukemia
OVCAR-3 ovarian = test system: OVCAR-3 ovarian
786-0 renal = test system: 786-0 renal
KM12 colon = test system: KM12 colon

Cc1ccc([N+](=O)[O-])c(C(=O)Nc2ccc(-c3ccc4c(c3)NC(=O)/C4=C\c3ccc[nH]3)cc2)c1
TGI (IGROV1 ovarian): 55 µM | GI50 (HT29 colon): > 100 µM | TGI (HT29 colon): > 100 µM | GI50 (NCI-H522 lung): 17 µM | TGI (NCI-H522 lung): 45.6 µM | GI50 (UACC-62 melanoma): 90.4 µM | TGI (UACC-62 melanoma): > 100 µM | GI50 (OVCAR-8 ovarian): 18.7 µM | TGI (OVCAR-8 ovarian): 39.7 µM | GI50 (SN12C renal): 55.2 µM | TGI (SN12C renal): > 100 µM | GI50 (LOX IMVI melanoma): 45.9 µM | TGI (LOX IMVI melanoma): > 100 µM | GI50 (SF-268 CNS): 31.1 µM | TGI (SF-268 CNS): > 100 µM | GI50 (SK-MEL-5 melanoma): > 100 µM | TGI (SK-MEL-5 melanoma): > 100 µM | GI50 (SR leukemia): 10.4 µM | TGI (SR leukemia): > 100 µM | GI50 (HCT-116 colon): 23.2 µM | TGI (HCT-116 colon): > 100 µM | GI50 (NCI/ADR-RES ovarian): 17 µM | TGI (NCI/ADR-RES ovarian): 38.1 µM | GI50 (BT-549 breast): 9.01 µM | TGI (BT-549 breast): 61 µM | GI50 (HOP-62 NSCLC): 22.2 µM | TGI (HOP-62 NSCLC): 54 µM | GI50 (COLO 205 colon): 53.1 µM | TGI (COLO 205 colon): > 100 µM | GI50 (MALME-3M melanoma): 36.7 µM | TGI (MALME-3M melanoma): > 100 µM | GI50 (EKVX NSCLC): 211 nM | TGI (EKVX NSCLC): > 100 µM | GI50 (SK-MEL-28 melanoma): > 100 µM | TGI (SK-MEL-28 melanoma): > 100 µM | GI50 (UACC-257 melanoma): > 100 µM | TGI (UACC-257 melanoma): > 100 µM | GI50 (U251 CNS): 16.4 µM | TGI (U251 CNS): 35.5 µM | GI50 (NCI-H460 lung): 3.48 µM | TGI (NCI-H460 lung): > 100 µM | GI50 (OVCAR-5 ovarian): 23.9 µM | TGI (OVCAR-5 ovarian): > 100 µM | GI50 (SK-OV-3 ovarian): 23.6 µM | TGI (SK-OV-3 ovarian): 63.2 µM | GI50 (CAKI-1 renal): > 100 µM | TGI (CAKI-1 renal): > 100 µM | GI50 (RPMI-8226 leukemia): > 100 µM | TGI (RPMI-8226 leukemia): > 100 µM | GI50 (OVCAR-3 ovarian): 27.6 µM | TGI (OVCAR-3 ovarian): 98.8 µM | GI50 (786-0 renal): 24.4 µM | TGI (786-0 renal): 68.8 µM | GI50 (KM12 colon): > 100 µM | TGI (KM12 colon): > 100 µM
